Data as given in patent US20240368135A1 (VERTEX PHARMACEUTICALS INCORPORATED, priority 2021, published 2024).
Where two headings read alike, the source gives them in different places.

Molecular target: human NaV 1.8 (Homo sapiens, UniProt Q9Y5Y9)
Test: E-VIPR assay detecting and measuring NaV inhibition properties
Format: cell-based
Conditions: HEK cells expressing truncated human NaV 1.8
Description: Sodium ion channels are voltage-dependent proteins that can be activated by inducing membrane voltage changes by applying electric fields. The electrical stimulation instrument and methods of use, referred to as E-VIPR, are described in International Publication No. WO 2002/008748 A3 and C.-J. Huang et al. Characterization of voltage-gated sodium channel blockers by electrical stimulation and fluorescence detection of membrane potential, 24 Nature Biotech. 439-46 (2006), both of which are incorporated by reference in their entirety. The instrument comprises a microtiter plate handler, an optical system for exciting the coumarin dye while simultaneously recording the coumarin and oxonol emissions, a waveform generator, a current- or voltage-controlled amplifier, and parallel electrode pairs that are inserted into assay plate wells. Under integrated computer control, this instrument passes user-programmed electrical stimulus protocols to cells within the wells of the microtiter plate.
16-20 hours prior to running the assay on E-VIPR, HEK cells expressing a truncated form of human NaV 1.8 with full channel activity were seeded into microtiter 384-well plates, pre-coated with matrigel, at a density of 25,000 cells per well. 2.5-5% KIR2.1 Bacmam virus was added to the final cell suspension before seeding into cell plates. HEK cells were grown in Dulbecco's Modified Eagle's Medium (DMEM) supplemented with 10% FBS (Fetal Bovine Serum, qualified; Sigma #F4135), 1% NEAA (Non-Essential Amino Acids, Gibco #11140), 1% HEPES (Gibco #15630), 1% Pen-Strep (Penicillin-Streptomycin; Gibco #15140) and 5 μg/ml Blasticidin (Gibco #R210-01). Cells were expanded in vented cap cell culture flasks, with 90-95% humidity and 5% CO2.
Human Serum (HS, Millipore #S1P1-01KL, or Sigma SLBR5469V and SLBR5470V as a 50%/50% mixture, for 25% assay final concentration) • Bath 1 Buffer: • Sodium Chloride 160 mM (9.35 g/L), Potassium Chloride, 4.5 mM (0.335 g/L), Glucose 10 mM (1.8 g/L), Magnesium Chloride (Anhydrous) 1 mM (0.095 g/L), Calcium Chloride 2 mM (0.222 g/L), HEPES 10 mM (2.38 g/L) in water. • Na/TMA C1 Bath 1 Buffer: • Sodium Chloride 96 mM (5.61 g/L), Potassium Chloride 4.5 mM (0.335 g/L), Tetramethylammonium (TMA)-Cl 64 mM (7.01 g/L), Glucose 10 mM (1.8 g/L), Magnesium Chloride (Anhydrous) 1 mM (0.095 g/L), Calcium Chloride 2 mM (0.222 g/L) HEPES 10 mM (2.38 g/L) in water. • Hexyl Dye Solution (2× concentration): • Bath 1 Buffer containing 0.5% P-cyclodextrin (made fresh prior to each use, Sigma #C4767), 8 μM CC2-DMPE and 2 μM DiSBAC6(3). The solution was made by adding 10% Pluronic F127 stock equal to combined volumes of CC2-DMPE and DiSBAC6(3). The order of preparation was first mix Pluronic and CC2-DMPE, then add DiSBAC6(3), then while vortexing add Bath 1/p-Cyclodextrin.
Compound Loading Buffer (2× concentration): Na/TMA C1 Bath1 Buffer containing HS (omitted in experiments run in the absence of human serum (HS)) 50%, VABSC-1 1 mM, BSA 0.2 mg/ml (in Bath-1), KCl 9 mM, DMSO 0.625%.
1) To reach the final concentration in each well, 375 nL of each compound was pre-spotted (in neat DMSO) into polypropylene compound plates at 240× desired final concentration from an intermediate stock concentration of 0.075 mM, in an 11 point dose response, 3-fold dilution, resulting in a top dose of 300 nM final concentration in the cell plate. Vehicle control (neat DMSO), and positive control (an established NaV1.8 inhibitor, 25 μM final in assay in DMSO) were added manually to the outermost columns of each plate respectively. The compound plate was backfilled with 45 μL per well of Compound Loading Buffer resulting in a 240 fold dilution of compound following a 1:1 transfer of compound into the cell plate (see Step 6). Final DMSO concentration for all wells in the assay was 0.625% (0.75% DMSO was supplemented to the Compound Loading Buffer for a final DMSO concentration of 0.625%). […]

[1] = in the presence of human serum (compound numbers followed by *), read-out: IC50 in the E-VIPR Assay, performed in the presence of human serum
[2] = no human serum, read-out: IC50 in the E-VIPR Assay

Sequence of human NaV 1.8 (Q9Y5Y9 126-399 limits assumed): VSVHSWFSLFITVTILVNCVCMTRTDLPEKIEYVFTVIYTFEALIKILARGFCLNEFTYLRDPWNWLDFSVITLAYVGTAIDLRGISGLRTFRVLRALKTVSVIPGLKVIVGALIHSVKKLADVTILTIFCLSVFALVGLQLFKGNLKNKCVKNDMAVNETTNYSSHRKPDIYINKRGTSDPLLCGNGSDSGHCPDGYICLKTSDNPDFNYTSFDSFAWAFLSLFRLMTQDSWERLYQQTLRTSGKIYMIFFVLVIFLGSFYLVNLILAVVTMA
Sequence of human NaV 1.8 (Q9Y5Y9 660-890 limits assumed): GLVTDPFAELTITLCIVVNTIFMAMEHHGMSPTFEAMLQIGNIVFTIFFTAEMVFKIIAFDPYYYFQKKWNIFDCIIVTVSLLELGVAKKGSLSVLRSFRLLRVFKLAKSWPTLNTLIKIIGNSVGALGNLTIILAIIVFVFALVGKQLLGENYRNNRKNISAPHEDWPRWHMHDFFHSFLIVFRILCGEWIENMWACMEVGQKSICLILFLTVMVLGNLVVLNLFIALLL
Sequence of human NaV 1.8 (Q9Y5Y9 1148-1722 limits assumed): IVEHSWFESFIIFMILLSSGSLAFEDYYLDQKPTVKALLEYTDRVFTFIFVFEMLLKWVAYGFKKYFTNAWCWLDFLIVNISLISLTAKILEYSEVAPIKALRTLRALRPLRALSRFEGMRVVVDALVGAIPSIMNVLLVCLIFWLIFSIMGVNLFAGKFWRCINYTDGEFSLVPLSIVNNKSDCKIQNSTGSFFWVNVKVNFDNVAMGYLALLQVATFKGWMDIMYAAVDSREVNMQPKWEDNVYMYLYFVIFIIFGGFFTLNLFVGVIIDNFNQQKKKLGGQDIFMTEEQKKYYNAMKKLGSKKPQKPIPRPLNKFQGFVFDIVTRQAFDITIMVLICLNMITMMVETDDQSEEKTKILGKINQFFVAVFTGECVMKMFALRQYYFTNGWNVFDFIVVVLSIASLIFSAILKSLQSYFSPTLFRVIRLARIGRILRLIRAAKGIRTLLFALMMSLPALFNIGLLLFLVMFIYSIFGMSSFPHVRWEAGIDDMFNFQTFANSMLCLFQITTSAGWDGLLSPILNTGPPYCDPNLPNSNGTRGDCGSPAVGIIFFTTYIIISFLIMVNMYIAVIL

Row | Structure (SMILES) | IC50 [1] [nM] | IC50 [2] [nM]
1 | C[C@@H]1[C@H](c2ccc(F)c(F)c2OC(F)F)[C@@H](C(=O)Nc2ccnnc2)O[C@]1(C)C(F)(F)F (stereo in doubt) [Compound 63, rel-(2S,3R,4R,5S)-3-(2-(difluoromethoxy)-3,4-difluorophenyl)-4,5-dimethyl-N-(pyridazin-4-yl)-5-(trifluoromethyl)tetrahydrofuran-2-carboxamide] | ≥ 1000 | 
2 | COc1c([C@H]2[C@H](C(=O)NCC#N)O[C@@](C)(C(F)(F)F)[C@H]2C)ccc(F)c1F [Compound 277, (2R,3S,4S,5R)-N-(cyanomethyl)-3-(3,4-difluoro-2-methoxyphenyl)-4,5-dimethyl-5-(trifluoromethyl)tetrahydrofuran-2-carboxamide] |  | ≥ 1000
3 | COc1c(C2CC(C)(C(F)(F)F)OC2C(=O)Nc2ccnc(C(O)C(C)O)c2)ccc(F)c1F (single isomer, unassigned) [Compound 693] | ≥ 1000 | 
4 | COCc1c(F)ccc([C@H]2[C@H](C(=O)Nc3ccc(C(N)=O)nc3)O[C@@](C)(C(F)(F)F)[C@H]2C)c1OC (stereo in doubt) [Compound 179, rel-5-((2R,3S,4S,5R)-3-(4-fluoro-2-methoxy-3-(methoxymethyl)phenyl)-4,5-dimethyl-5-(trifluoromethyl)tetrahydrofuran-2-carboxamido)picolinamide] |  | 10 to 100
5 | CCOc1c(C2C(C(=O)Nc3ccnc(S(C)(=O)=NC)c3)OC(C)(C(F)(F)F)C2C)ccc(F)c1F (stereo not shown) [Compound 113, N-[2-(N,S-dimethylsulfonimidoyl)-4-pyridyl]-3-(2-ethoxy-3,4-difluoro-phenyl)-4,5-dimethyl-5-(trifluoromethyl)tetrahydrofuran-2-carboxamide] |  | < 10
6 | C[C@@H]1[C@H](c2ccc(F)c(F)c2OC(F)F)[C@@H](C(=O)Nc2ccn(C)c(=O)c2)O[C@]1(C)C(F)(F)F (single isomer, unassigned) [Compound 77] |  | ≥ 1000
7 | C[C@H]1[C@@H](c2ccc(F)c(F)c2O[C@H]2C[C@@H](O)C2)[C@H](C(=O)Nc2ccn(C)c(=O)c2)O[C@@]1(C)C(F)(F)F [Compound 663, (2R,3S,4S,5R)-3-(3,4-difluoro-2-((1S,3R)-3-hydroxycyclobutoxy)phenyl)-4,5-dimethyl-N-(1-methyl-2-oxo-1,2-dihydropyridin-4-yl)-5-(trifluoromethyl)tetrahydrofuran-2-carboxamide] |  | 10 to 100
8 | COc1c([C@H]2[C@H](C(=O)Nc3cn(C4CCOCC4)nc3C)O[C@@](C)(C(F)(F)F)[C@H]2C)ccc(F)c1F [Compound 325, (2R,3S,4S,5R)-3-(3,4-difluoro-2-methoxyphenyl)-4,5-dimethyl-N-(3-methyl-1-(tetrahydro-2H-pyran-4-yl)-1H-pyrazol-4-yl)-5-(trifluoromethyl)-tetrahydrofuran-2-carboxamide] |  | 10 to 100
9 | COc1c([C@H]2[C@H](C(=O)Nc3ccnc(CN4CCC[C@H]4CO)c3)O[C@@](C)(C(F)(F)F)[C@H]2C)ccc(F)c1F [Compound 386, (2R,3S,4S,5R)-3-(3,4-difluoro-2-methoxyphenyl)-N-(2-(((S)-2-(hydroxymethyl)pyrrolidin-1-yl)methyl)pyridin-4-yl)-4,5-dimethyl-5-(trifluoromethyl)tetrahydrofuran-2-carboxamide] |  | < 10
10 | COc1c([C@H]2[C@H](C(=O)NC(C)C(=O)NC3CC3)O[C@@](C)(C(F)(F)F)[C@H]2C)ccc(F)c1F (stereo partly drawn) [Compound 297, (2R,3S,4S,5R)-N-(1-(cyclopropylamino)-1-oxopropan-2-yl)-3-(3,4-difluoro-2-methoxyphenyl)-4,5-dimethyl-5-(trifluoromethyl)tetrahydrofuran-2-carboxamide] |  | ≥ 1000
11 | COCc1cc(NC(=O)C2OC(C)(C(F)(F)F)C(C)C2c2ccc(F)c(F)c2OC2CC(O)C2)ccn1 [Compound 664, (2R,3S,4S,5R)-3-(3,4-difluoro-2-((1S,3R)-3-hydroxycyclobutoxy)phenyl)-N-(2-(methoxymethyl)pyridin-4-yl)-4,5-dimethyl-5-(trifluoromethyl)tetrahydrofuran-2-carboxamide] |  | 10 to 100
12 | CNC(c1cc(NC(=O)[C@@H]2O[C@@](C)(C(F)(F)F)[C@@H](C)[C@H]2c2ccc(F)c(F)c2OC)ccn1)C(C)(C)OC (single isomer, unassigned) [Compound 344, rel-(2R*,3S*,4S*,5R*)-3-(3,4-difluoro-2-methoxyphenyl)-N-(2-(2-methoxy-2-methyl-1-(methylamino)propyl)pyridin-4-yl)-4,5-dimethyl-5-(trifluoromethyl)-tetrahydrofuran-2-carboxamide] |  | < 10
13 | COc1c([C@H]2[C@H](C(=O)Nc3cc(C4CN(C)CCO4)ncc3F)O[C@@](C)(C(F)(F)F)[C@H]2C)ccc(F)c1F (single isomer, unassigned) [Compound 366, rel-(2R*,3S*,4S*,5R*)-3-(3,4-difluoro-2-methoxyphenyl)-N-(5-fluoro-2-(4-methylmorpholin-2-yl)pyridin-4-yl)-4,5-dimethyl-5-(trifluoromethyl)tetrahydrofuran-2-carboxamide] |  | < 10
14 | COc1c([C@H]2[C@H](C(=O)Nc3ccc4nc[nH]c4c3)O[C@@](C)(C(F)(F)F)[C@H]2C)ccc(F)c1F [Compound 212, (2R,3S,4S,5R)-N-(1H-benzo[d]imidazol-6-yl)-3-(3,4-difluoro-2-methoxyphenyl)-4,5-dimethyl-5-(trifluoromethyl)tetrahydrofuran-2-carboxamide] | 100 to 1000 | 
15 | C[C@H]1[C@@H](c2ccc(F)c(F)c2OC(F)F)[C@H](C(=O)Nc2ccnc(N3CCNCC3=O)c2)O[C@@]1(C)C(F)(F)F [Compound 514, (2R,3S,4S,5R)-3-(2-(difluoromethoxy)-3,4-difluorophenyl)-4,5-dimethyl-N-(2-(2-oxopiperazin-1-yl)pyridin-4-yl)-5-(trifluoromethyl)tetrahydrofuran-2-carboxamide] |  | 10 to 100
16 | COc1c([C@H]2[C@H](C(=O)Nc3cnnc(N4C(=O)CN(C)C[C@H]4C)c3)O[C@@](C)(C(F)(F)F)[C@H]2C)ccc(F)c1F [Compound 384, (2R,3S,4S,5R)-3-(3,4-difluoro-2-methoxyphenyl)-N-(6-((R)-2,4-dimethyl-6-oxopiperazin-1-yl)pyridazin-4-yl)-4,5-dimethyl-5-(trifluoromethyl)tetrahydrofuran-2-carboxamide] |  | < 10
17 | CCS(=O)(=O)c1cc(NC(=O)[C@@H]2O[C@@](C)(C(F)(F)F)[C@@H](C)[C@H]2c2ccc(F)c(F)c2OC(F)F)ccn1 (single isomer, unassigned) [Compound 90] |  | < 10
18 | CNC(COC)c1cc(NC(=O)[C@@H]2O[C@@](C)(C(F)(F)F)[C@@H](C)[C@H]2c2ccc(F)c(F)c2OC)c(F)cn1 (single isomer, unassigned) [Compound 418, rel-(2R*,3S*,4S*,5R*)-3-(3,4-difluoro-2-methoxyphenyl)-N-(5-fluoro-2-(2-methoxy-1-(methylamino)ethyl)-pyridin-4-yl)-4,5-dimethyl-5-(trifluoromethyl)-tetrahydrofuran-2-carboxamide] |  | < 10
19 | C[C@@H]1[C@H](c2ccc(F)c(F)c2OC(F)F)[C@@H](C(=O)Nc2ccnc(CO)c2)O[C@]1(C)C(F)(F)F (single isomer, unassigned) [Compound 91] |  | ≥ 1000
